Values after ≈ are worked out from the molar mass of the structure shown.
How the values were obtained:
Type in all cases: functional
[1] = tested on: Mycobacterium tuberculosis; experiment: Antimycobacterial activity against isoniazid-resistant Mycobacterium tuberculosis H37Rv ATCC 35822 assessed as inhibition of bacterial growth incubated for 48 hrs by broth microdilution assay
[2] = tested on: Mycobacterium tuberculosis; experiment: Antimycobacterial activity against ethambutol-resistant Mycobacterium tuberculosis H37Rv ATCC 35837 assessed as inhibition of bacterial growth incubated for 48 hrs by resazurin microtitre assay
[3] = tested on: Mycobacterium tuberculosis; experiment: Antimycobacterial activity against Streptomycin-resistant Mycobacterium tuberculosis H37Rv ATCC 35820 assessed as inhibition of bacterial growth incubated for 48 hrs by resazurin microtitre assay
[4] = tested on: Mycobacterium tuberculosis; experiment: Antimycobacterial activity against rifampicin-resistant Mycobacterium tuberculosis H37Rv ATCC 35838 assessed as inhibition of bacterial growth incubated for 48 hrs by resazurin microtitre assay

O=C(/C=C/c1ccc([N+](=O)[O-])o1)c1ccc(Nc2nc3ccccc3o2)cc1
MIC [1]: 0.06 µg/mL (≈ 0.16 µM)
MIC [2]: 0.03 µg/mL (≈ 0.0799 µM)
MIC [3]: 0.12 µg/mL (≈ 0.32 µM)
MIC [4]: 0.03 µg/mL (≈ 0.0799 µM)

Cc1ccc2oc(Nc3ccc(C(=O)/C=C/c4ccc([N+](=O)[O-])o4)cc3)nc2c1
MIC [1]: 0.12 µg/mL (≈ 0.308 µM)
MIC [2]: 0.06 µg/mL (≈ 0.154 µM)
MIC [3]: 0.06 µg/mL (≈ 0.154 µM)
MIC [4]: 0.03 µg/mL (≈ 0.077 µM)

O=C(/C=C/c1ccc([N+](=O)[O-])o1)c1ccc(Nc2nc3cc(Cl)ccc3o2)cc1
MIC [1]: 0.06 µg/mL (≈ 0.146 µM)
MIC [2]: 0.03 µg/mL (≈ 0.0732 µM)
MIC [3]: 0.06 µg/mL (≈ 0.146 µM)
MIC [4]: 0.03 µg/mL (≈ 0.0732 µM)

O=C(/C=C/c1ccc([N+](=O)[O-])o1)c1ccc(Nc2nc3cc([N+](=O)[O-])ccc3o2)cc1
MIC [1]: 0.25 µg/mL (≈ 0.595 µM)
MIC [2]: 0.06 µg/mL (≈ 0.143 µM)
MIC [3]: 0.12 µg/mL (≈ 0.285 µM)
MIC [4]: 0.03 µg/mL (≈ 0.0714 µM)

O=C(/C=C/c1ccc([N+](=O)[O-])o1)c1cccc(Nc2nc3ccccc3o2)c1
MIC [1]: 0.25 µg/mL (≈ 0.666 µM)
MIC [2]: 0.06 µg/mL (≈ 0.16 µM)
MIC [3]: 0.12 µg/mL (≈ 0.32 µM)
MIC [4]: 0.03 µg/mL (≈ 0.0799 µM)

CC[C@@H](CO)NCCN[C@@H](CC)CO [ETHAMBUTOL]
MIC [1]: 1 µg/mL (≈ 4.89 µM)
MIC [2]: 32 µg/mL (≈ 157 µM)
MIC [3]: 1 µg/mL (≈ 4.89 µM)
MIC [4]: 1 µg/mL (≈ 4.89 µM)

NNC(=O)c1ccncc1 [ISONIAZID]
MIC [1]: > 64 µg/mL
MIC [2]: 0.03 µg/mL (≈ 0.219 µM)
MIC [3]: 0.03 µg/mL (≈ 0.219 µM)
MIC [4]: 0.03 µg/mL (≈ 0.219 µM)

CO[C@H]1/C=C/O[C@@]2(C)Oc3c(C)c(O)c4c(O)c(c(/C=N/N5CCN(C)CC5)c(O)c4c3C2=O)NC(=O)/C(C)=C\C=C\[C@H](C)[C@H](O)[C@@H](C)[C@@H](O)[C@@H](C)[C@H](OC(C)=O)[C@@H]1C [RIFAMPIN]
MIC [1]: 0.03 µg/mL (≈ 0.0365 µM)
MIC [2]: 0.03 µg/mL (≈ 0.0365 µM)
MIC [3]: 0.03 µg/mL (≈ 0.0365 µM)
MIC [4]: 64 µg/mL (≈ 77.8 µM)

CN[C@@H]1[C@H](O[C@H]2[C@H](O[C@H]3[C@H](O)[C@@H](O)[C@H](N=C(N)N)[C@@H](O)[C@@H]3N=C(N)N)O[C@@H](C)[C@]2(O)C=O)O[C@@H](CO)[C@H](O)[C@H]1O [STREPTOMYCIN]
MIC [1]: 1 µg/mL (≈ 1.72 µM)
MIC [2]: 1 µg/mL (≈ 1.72 µM)
MIC [3]: > 64 µg/mL
MIC [4]: 1 µg/mL (≈ 1.72 µM)

Reference: ChEMBL document CHEMBL5143690, “Identification of nitrofuranylchalcone tethered benzoxazole-2-amines as potent inhibitors of drug resistant Mycobacterium tuberculosis demonstrating bactericidal efficacy” (Bioorg Med Chem, 2022)
